Experimental data from patent US10590078B2, “Sodium channel blockers” (Daewoong Pharmaceutical Co., Ltd., priority 2015, dated 2020).
Read-outs that look alike come from different tables or passages of the source.

Target: human sodium ion channel 1.7 (hNav1.7) (Homo sapiens, UniProt Q15858)
Test: Blocking effect against sodium ion channel Nav1.7, IonFlux16 auto patch clamp in hNav1.7 HEK293 cells
Assay type: cell-based
[1] = hNav1.7 HEK293 cells, inhibition of peak current after 50 seconds treatment, eight concentrations, read-out: IC50

human sodium ion channel 1.7 (hNav1.7), sequence (Q15858 whole entry): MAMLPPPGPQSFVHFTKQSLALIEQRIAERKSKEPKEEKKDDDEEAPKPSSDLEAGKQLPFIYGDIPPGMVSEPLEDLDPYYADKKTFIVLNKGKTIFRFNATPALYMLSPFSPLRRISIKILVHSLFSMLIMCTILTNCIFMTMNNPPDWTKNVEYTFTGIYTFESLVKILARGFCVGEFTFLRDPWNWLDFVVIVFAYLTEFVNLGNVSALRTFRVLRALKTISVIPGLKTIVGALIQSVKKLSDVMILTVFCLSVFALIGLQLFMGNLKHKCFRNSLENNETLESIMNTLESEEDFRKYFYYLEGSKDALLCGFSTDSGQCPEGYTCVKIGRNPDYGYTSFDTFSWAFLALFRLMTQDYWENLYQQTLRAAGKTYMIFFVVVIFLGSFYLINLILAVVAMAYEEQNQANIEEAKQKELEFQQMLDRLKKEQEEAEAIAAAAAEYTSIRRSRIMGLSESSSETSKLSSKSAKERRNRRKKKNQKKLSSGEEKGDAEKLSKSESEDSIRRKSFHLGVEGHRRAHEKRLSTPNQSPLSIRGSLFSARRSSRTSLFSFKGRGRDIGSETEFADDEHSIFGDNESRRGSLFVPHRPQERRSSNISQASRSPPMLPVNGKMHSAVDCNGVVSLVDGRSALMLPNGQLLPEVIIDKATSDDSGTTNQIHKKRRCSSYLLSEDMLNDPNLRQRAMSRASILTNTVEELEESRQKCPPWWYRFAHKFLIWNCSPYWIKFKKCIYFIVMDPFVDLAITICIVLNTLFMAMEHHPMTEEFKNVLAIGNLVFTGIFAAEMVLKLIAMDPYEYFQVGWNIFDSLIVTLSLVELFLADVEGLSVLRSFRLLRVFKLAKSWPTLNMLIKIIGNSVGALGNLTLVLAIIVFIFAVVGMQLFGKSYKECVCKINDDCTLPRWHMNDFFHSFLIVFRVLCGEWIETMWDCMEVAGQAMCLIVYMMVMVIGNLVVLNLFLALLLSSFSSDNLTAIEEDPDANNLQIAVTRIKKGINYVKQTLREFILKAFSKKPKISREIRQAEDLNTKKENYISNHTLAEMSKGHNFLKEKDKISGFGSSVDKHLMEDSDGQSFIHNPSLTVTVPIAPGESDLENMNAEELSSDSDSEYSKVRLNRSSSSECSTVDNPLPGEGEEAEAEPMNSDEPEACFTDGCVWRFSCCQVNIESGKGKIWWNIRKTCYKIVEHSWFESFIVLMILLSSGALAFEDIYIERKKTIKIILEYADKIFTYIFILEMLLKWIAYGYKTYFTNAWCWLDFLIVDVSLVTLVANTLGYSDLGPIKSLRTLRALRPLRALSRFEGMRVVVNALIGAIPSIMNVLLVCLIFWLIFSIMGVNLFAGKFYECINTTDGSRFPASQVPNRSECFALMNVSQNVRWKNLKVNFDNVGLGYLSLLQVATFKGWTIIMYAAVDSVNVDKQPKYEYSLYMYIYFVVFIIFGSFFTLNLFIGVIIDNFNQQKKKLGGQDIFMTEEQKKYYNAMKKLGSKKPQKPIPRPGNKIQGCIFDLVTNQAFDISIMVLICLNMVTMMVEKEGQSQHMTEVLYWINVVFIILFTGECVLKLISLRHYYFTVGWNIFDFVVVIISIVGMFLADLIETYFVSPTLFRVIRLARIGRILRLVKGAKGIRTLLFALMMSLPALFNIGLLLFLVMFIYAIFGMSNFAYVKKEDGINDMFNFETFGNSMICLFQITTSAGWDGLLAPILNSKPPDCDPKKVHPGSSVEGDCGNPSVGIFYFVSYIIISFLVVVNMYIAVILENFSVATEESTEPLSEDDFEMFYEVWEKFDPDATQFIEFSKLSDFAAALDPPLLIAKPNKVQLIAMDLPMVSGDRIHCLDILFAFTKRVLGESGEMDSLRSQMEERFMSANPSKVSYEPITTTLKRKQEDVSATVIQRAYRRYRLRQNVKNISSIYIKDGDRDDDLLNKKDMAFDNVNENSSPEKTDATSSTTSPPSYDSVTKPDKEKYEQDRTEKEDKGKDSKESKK

Fc1cc(-n2nc(-c3ccc(Cl)cc3F)c3cc(Cl)ccc32)c(Cl)cc1-c1nnn[nH]1 [Example 289, 5-chloro-3-(4-chloro-2-fluorophenyl)-1-(2-chloro-5-fluoro-4-(1H-tetrazol-5-yl)phenyl)-1H-indazole]
IC50 [1]: > 10000 nM

CS(=O)(=O)NC(=O)c1cc(Cl)c(-n2nc(Cl)c3cc(OCCc4ccccc4)ccc32)cc1F [Example 40, 5-chloro-4-(3-chloro-5-phenethoxy-1H-indazol-1-yl)-2-fluoro-N-(methylsulfonyl)benzamide]
IC50 [1]: 190 nM

CS(=O)(=O)NC(=O)c1cc(Cl)c(-n2nc(Cl)c3cc(-c4ccccc4)ccc32)cc1F [Example 230, 5-chloro-4-(3-chloro-5-phenyl-1H-indazol-1-yl)-2-fluoro-N-(methylsulfonyl)benzamide]
IC50 [1]: 144 nM

CS(=O)(=O)NC(=O)c1cc(Cl)c(-n2ncc3cc(Cl)ccc32)cc1F [Example 2, 5-chloro-4-(5-chloro-1H-indazol-1-yl)-2-fluoro-N-(methylsulfonyl)benzamide]
IC50 [1]: 5390 nM

CS(=O)(=O)NC(=O)c1cc(Cl)c(-n2nc(-c3cccc(Cl)c3F)c3cc(Cl)ccc32)cc1F [Example 79, 5-chloro-4-(5-chloro-3-(3-chloro-2-fluorophenyl)-1H-indazol-1-yl)-2-fluoro-N-(methylsulfonyl)benzamide]
IC50: 70 nM

CC(C)(C)OC(=O)N1CC=C(c2nn(-c3cc(F)c(C(=O)NS(C)(=O)=O)cc3Cl)c3ccc(Cl)cc23)CC1 [Example 131, tert-butyl 4-(5-chloro-1-(2-chloro-5-fluoro-4-((methylsulfonyl)carbamoyl)phenyl)-1H-indazol-3-yl)-3,6-dihydropyridine-1(2H)-carboxylate]
IC50 [1]: 2600 nM

CS(=O)(=O)NC(=O)c1ccc(-n2nc(Cl)c3cc(O)ccc32)cc1 [Example 12, 4-(3-chloro-5-hydroxy-1H-indazol-1-yl)-N-(methylsulfonyl)benzamide]
IC50 [1]: > 10000 nM

CS(=O)(=O)NC(=O)c1cc(Cl)c(-n2nc(-c3ccc(Cl)cc3)c3cc(Cl)ccc32)cc1F [Example 67, 5-chloro-4-(5-chloro-3-(4-chlorophenyl)-1H-indazol-1-yl)-2-fluoro-N-(methylsulfonyl)benzamide]
IC50 [1]: 33 nM

CS(=O)(=O)NC(=O)c1ccc(-n2nc(-c3cccc(C#N)c3)c3cc(Cl)ccc32)c(C#N)c1 [Example 95, 4-(5-chloro-3-(3-cyanophenyl)-1H-indazol-1-yl)-3-cyano-N-(methylsulfonyl)benzamide]
IC50 [1]: > 10000 nM

CS(=O)(=O)NC(=O)c1cc(F)c(-n2nc(-c3ccc(C(F)(F)F)cc3)c3cc(Cl)ccc32)cc1Cl [Example 111, 2-chloro-4-(5-chloro-3-(4-(trifluoromethyl)phenyl)-1H-indazol-1-yl)-5-fluoro-N-(methylsulfonyl)benzamide]
IC50 [1]: 552 nM

CS(=O)(=O)NC(=O)c1cc(Cl)c(-n2nc(/C=C/c3ccc(C(F)(F)F)cc3)c3cc(Cl)ccc32)cc1F [Example 137, (E)-5-chloro-4-(5-chloro-3-(4-(trifluoromethyl)styryl)-1H-indazol-1-yl)-2-fluoro-N-(methylsulfonyl)benzamide]
IC50 [1]: 680 nM

NC(=O)NNC(=O)c1cc(Cl)c(-n2nc(-c3ccc(Cl)cc3F)c3cc(Cl)ccc32)cc1F [Example 290, 2-(5-chloro-4-(5-chloro-3-(4-chloro-2-fluorophenyl)-1H-indazol-1-yl)-2-fluorobenzoyl)hydrazine-1-carboxamide]
IC50 [1]: 11200 nM

CS(=O)(=O)NC(=O)c1cc(Cl)c(-n2nc(Cl)c3cc(Cl)cnc32)cc1F [Example 3, 5-chloro-4-(3,5-dichloro-1H-pyrazolo[3,4-b]pyridin-1-yl)-2-fluoro-N-(methylsulfonyl)benzamide]
IC50 [1]: 1130 nM

CS(=O)(=O)NC(=O)c1cc(Cl)c(-n2nc(-c3ccncc3)c3cc(Cl)ccc32)cc1F [Example 49, 5-chloro-4-(5-chloro-3-(pyridin-4-yl)-1H-indazol-1-yl)-2-fluoro-N-(methylsulfonyl)benzamide]
IC50 [1]: 2220 nM

COC(=O)c1nn(-c2cc(F)c(C(=O)NS(C)(=O)=O)cc2Cl)c2cc(OCc3ccccc3)ccc12 [Example 46, methyl 6-(benzyloxy)-1-(2-chloro-5-fluoro-4-((methylsulfonyl)carbamoyl)phenyl)-1H-indazole-3-carboxylate]
IC50 [1]: > 10000 nM

COc1ccc(-c2nn(-c3ccc(C(=O)NS(C)(=O)=O)cc3F)c3ccc(Cl)cc23)cc1 [Example 118, 4-(5-chloro-3-(4-methoxyphenyl)-1H-indazol-1-yl)-3-fluoro-N-(methylsulfonyl)benzamide]
IC50 [1]: 360 nM

CS(=O)(=O)NC(=O)c1cc(F)c(-n2nc(-c3ccccc3F)c3cc(Cl)ccc32)cc1Cl [Example 113, 2-chloro-4-(5-chloro-3-(2-fluorophenyl)-1H-indazol-1-yl)-5-fluoro-N-(methylsulfonyl)benzamide]
IC50 [1]: 752 nM

CS(=O)(=O)NC(=O)c1cc(Cl)c(-n2nc(-c3cc[nH]n3)c3cc(Cl)ccc32)cc1F [Example 90, 5-chloro-4-(5-chloro-3-(1H-pyrazol-3-yl)-1H-indazol-1-yl)-2-fluoro-N-(methylsulfonyl)benzamide]
IC50 [1]: 11200 nM

CS(=O)(=O)NC(=O)c1cc(Cl)c(-n2cc(-c3cccc(C(F)(F)F)c3)c3cc(Cl)cnc32)cc1F [Example 192, 5-chloro-4-(5-chloro-3-(3-(trifluoromethyl)phenyl)-1H-pyrrolo[2,3-b]pyridin-1-yl)-2-fluoro-N-(methylsulfonyl)benzamide]
IC50 [1]: 270 nM

CC(C)COc1ccc2c(c1)c(Cl)nn2-c1cc(F)c(C(=O)NS(C)(=O)=O)cc1Cl [Example 42, 5-chloro-4-(3-chloro-5-isobutoxy-1H-indazol-1-yl)-2-fluoro-N-(methylsulfonyl)benzamide]
IC50 [1]: 181 nM

COc1cccc(-c2nn(-c3cc(F)c(C(=O)NS(C)(=O)=O)cc3Cl)c3ccc(F)cc23)c1 [Example 151, 5-chloro-2-fluoro-4-(5-fluoro-3-(3-methoxyphenyl)-1H-indazol-1-yl)-N-(methylsulfonyl)benzamide]
IC50 [1]: 80 nM

Cc1cccc(-c2nn(-c3cc(F)c(C(=O)NS(C)(=O)=O)cc3Cl)c3ccc(F)cc23)c1 [Example 152, 5-chloro-2-fluoro-4-(5-fluoro-3-(m-tolyl)-1H-indazol-1-yl)-N-(methylsulfonyl)benzamide]
IC50 [1]: 80 nM

CS(=O)(=O)NC(=O)c1cc(Cl)c(-n2nc(/C=C/c3ccccc3)c3cc(Cl)ccc32)cc1F [Example 133, (E)-5-chloro-4-(5-chloro-3-styryl-1H-indazol-1-yl)-2-fluoro-N-(methylsulfonyl)benzamide]
IC50 [1]: 120 nM

CS(=O)(=O)NC(=O)c1cc(Cl)c(-n2cc(-c3ccc(C(F)(F)F)cc3)c3cc(F)cnc32)cc1F [Example 205, 5-chloro-2-fluoro-4-(5-fluoro-3-(4-(trifluoromethyl)phenyl)-1H-pyrrolo[2,3-b]pyridin-1-yl)-N-(methylsulfonyl)benzamide]
IC50 [1]: 50 nM

CS(=O)(=O)NC(=O)c1cc(Cl)c(-n2nc(-c3cc(F)cc(Cl)c3)c3cc(Cl)ccc32)cc1F [Example 73, 5-chloro-4-(5-chloro-3-(3-chloro-5-fluorophenyl)-1H-indazol-1-yl)-2-fluoro-N-(methylsulfonyl)benzamide]
IC50 [1]: 30 nM

CS(=O)(=O)NC(=O)c1cc(Cl)c(-n2nc(-c3ccnc(F)c3)c3cc(Cl)ccc32)cc1F [Example 68, 5-chloro-4-(5-chloro-3-(2-fluoropyridin-4-yl)-1H-indazol-1-yl)-2-fluoro-N-(methylsulfonyl)benzamide]
IC50 [1]: 590 nM

CS(=O)(=O)NC(=O)c1cc(Cl)c(-n2nc(/C=C/c3ccccc3Cl)c3cc(Cl)ccc32)cc1F [Example 136, (E)-5-chloro-4-(5-chloro-3-(2-chlorostyryl)-1H-indazol-1-yl)-2-fluoro-N-(methylsulfonyl)benzamide]
IC50 [1]: 1010 nM

CS(=O)(=O)NC(=O)c1cc(Cl)c(-n2nc(-c3ccc(F)cc3)c3ccccc32)cc1F [Example 179, 5-chloro-2-fluoro-4-(3-(4-fluorophenyl)-1H-indazol-1-yl)-N-(methylsulfonyl)benzamide]
IC50 [1]: 390 nM

CS(=O)(=O)NC(=O)c1cc(Cl)c(-n2cc(-c3ccc(C(F)(F)F)cc3)c3cccnc32)cc1F [Example 218, 5-chloro-2-fluoro-N-(methylsulfonyl)-4-(3-(4-(trifluoromethyl)phenyl)-1H-pyrrolo[2,3-b]pyridin-1-yl)benzamide]
IC50 [1]: 290 nM

CC(C)(O)C#Cc1nn(-c2cc(F)c(C(=O)NS(C)(=O)=O)cc2Cl)c2ccc(Cl)cc12 [Example 129, 5-chloro-4-(5-chloro-3-(3-hydroxy-3-methylbut-1-yn-1-yl)-1H-indazol-1-yl)-2-fluoro-N-(methylsulfonyl)benzamide]
IC50 [1]: 1740 nM

CS(=O)(=O)NC(=O)c1cc(Cl)c(-n2nc(-c3cccc(C(F)(F)F)c3)c3cc(F)ccc32)cc1F [Example 150, 5-chloro-2-fluoro-4-(5-fluoro-3-(3-(trifluoromethyl)phenyl)-1H-indazol-1-yl)-N-(methylsulfonyl)benzamide]
IC50 [1]: 180 nM

CS(=O)(=O)NC(=O)c1cc(Cl)c(-n2nc(Cl)c3c(Cl)c(OCc4ccc(F)cc4)ccc32)cc1F [Example 31, 5-chloro-4-(3,4-dichloro-5-((4-fluorobenzyl)oxy)-1H-indazol-1-yl)-2-fluoro-N-(methylsulfonyl)benzamide]
IC50 [1]: 1510 nM

CS(=O)(=O)NC(=O)c1cc(Cl)c(-n2nc(-c3ccc(Cl)c(F)c3)c3cc(F)ccc32)cc1F [Example 164, 5-chloro-4-(3-(4-chloro-3-fluorophenyl)-5-fluoro-1H-indazol-1-yl)-2-fluoro-N-(methylsulfonyl)benzamide]
IC50 [1]: 220 nM

CS(=O)(=O)NC(=O)c1cc(Cl)c(-n2cc(-c3ccc(Cl)cc3)c3cc(Cl)ccc32)cc1F [Example 272, 5-chloro-4-(5-chloro-3-(4-chlorophenyl)-1H-indol-1-yl)-2-fluoro-N-(methylsulfonyl)benzamide]
IC50 [1]: 370 nM

CS(=O)(=O)NC(=O)c1cc(Cl)c(-n2nc(Cl)c3cc(-c4ccccc4Cl)ccc32)cc1F [Example 252, 5-chloro-4-(3-chloro-5-(2-chlorophenyl)-1H-indazol-1-yl)-2-fluoro-N-(methylsulfonyl)benzamide]
IC50 [1]: 240 nM
